# Literature values in patent publication US8338072B2, “Resist composition, resist pattern forming process, and method for manufacturing semiconductor device” (Fujitsu Limited, priority 2006, dated 2012).
# Conditions: Table 1, additives 4A to 4F
row,Compound,pKa
1,"NCCN [Example 4D, Ethylenediamine]",7.12
2,"CC(O)C(=O)O (stereo not shown) [Example 4B, Lactic acid]",4.57
3,"CCCCCN [Example 4F, Pentylamine]",10.93
4,"CCCCCCN [Example 4E, Hexylamine]",10.85

# Same assay, conditions: values for example additives
row,Compound,pKa
1,CCCN [propylamine],10.93
2,O=C(O)CCC(=O)O [succinic acid],3.99
3,NCc1ccccc1O [2-hydroxybenzylamine],8.63
4,NC1CCCC1 [cyclopentylamine],10.56
5,"NCCN [Example 4D, Ethylenediamine]",7.12
6,NC1CCCCC1 [cyclohexylamine],10.62
7,CCCCC(=O)O [valeric acid],5.17
8,c1ccc(Nc2ccccc2)cc1 [diphenylamine],13.65
9,CCCC(=O)O [butyric acid],4.57
10,"CCCCCN [Example 4F, Pentylamine]",10.93
11,methylpyridine,5.80-6.10
12,O=C(O)/C=C/C(=O)O [fumaric acid],3.07
